Results as given in publication PMC13309125, “Differential regulation of hepatic macrophage fate by Chi3l1 in metabolic dysfunction-associated steatotic liver disease” (eLife, 2026).

Target: T1, Chi3l1 (chitinase 3-like 1, YKL-40) (Mus musculus, UniProt Q61362)
T1 construct: recombinant mouse Chi3l1 (rChi3l1), labelled with His-Tag Labeling Kit RED-tris-NTA
Experiment: microscale thermophoresis (MST); supported by biotin-glucose pull-down competed by unlabeled glucose
Assay type: binding

T1 sequence (Q61362 30-389): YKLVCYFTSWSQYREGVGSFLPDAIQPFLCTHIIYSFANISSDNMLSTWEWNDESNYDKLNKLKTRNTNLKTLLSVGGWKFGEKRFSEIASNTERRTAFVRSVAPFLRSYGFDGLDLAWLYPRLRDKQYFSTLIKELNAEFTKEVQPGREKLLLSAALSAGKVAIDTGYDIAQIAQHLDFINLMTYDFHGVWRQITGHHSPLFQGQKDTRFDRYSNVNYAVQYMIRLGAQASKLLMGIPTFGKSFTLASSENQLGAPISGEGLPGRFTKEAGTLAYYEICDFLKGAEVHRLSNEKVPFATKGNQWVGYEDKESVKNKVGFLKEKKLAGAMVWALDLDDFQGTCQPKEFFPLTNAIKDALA

Kd: 4.95 mM
Compound: OC[C@H]1OC(O)[C@H](O)[C@@H](O)[C@@H]1O (stereo partly shown) [glucose]
